{"source": "patent US20080268069A1", "about": "“Mixture having effect of improving insulin resistance, effect of suppressing body weight gain, and effect of preventing and improving fatty liver” (Ryusendo Co., Ltd., priority 2007, published 2008)", "type_in_all_cases": "in vivo", "key": {"[1]": {"test_system": "Zucker fa/fa rat", "experiment": "28-day feeding study: dietary intake, body weight gain, organ weights", "conditions": "compared to V group; for suppression of body weight gain: feeding period of 28 days", "experimental": "(§1) The Zucker fa/fa rat is polyphagous and used as an obesity model and also as a hyperinsulinemia or insulin resistance model.\nEight-week old Zucker fa/fa (Obesity model)\nVehicle (V) fa/fa Basic diet\nOnion (O) fa/fa Basic diet+5% Onion\n(§2) Dietary intake, body weight gain, liver weight, kidney weight, peritesticular fat weight, glucose tolerance test, blood glucose level, serum insulin, total serum cholesterol, serum triglyceride, serum free fatty acid, and serum leptin.\n(§3) Significant tests were carried out using the t test. Two-tailed tests were used for the V group, with significance expressed at p<0.05 (*) and p<0.01 (**)."}, "[2]": {"test_system": "Zucker fa/fa rat", "experiment": "Glucose tolerance test", "experimental": "as §1, §3\nGlucose tolerance tests were carried out in each group of rats at the 2nd week (9-week old) and 4th (11-week old) week after the start of experiment. After 16 hours of fasting, each group of rats was forcedly allowed to ingest 2 g/kg body weight of D-glucose, followed by measuring blood glucose level with time."}, "[3]": {"test_system": "Zucker fa/fa rat", "experiment": "Serum parameters and blood glucose level at autopsy", "conditions": "compared to V group", "experimental": "as §1, §2, §3\nAt autopsy, serum insulin and blood glucose level were measured."}}, "note": "“Also recorded” adds a separate entry of the source.", "data": [{"substance": "trivalent chromium-nicotinic acid complex [Cr]", "values": [{"measurement": "weight of kidney", "setting": "[1]; 28 days feeding", "result": "no significant difference"}, {"measurement": "weight of peritesticular fat", "setting": "[1]; 28 days feeding", "result": "no significant difference"}, {"measurement": "suppression of body weight gain", "setting": "[1]", "result": "no significant difference"}, {"measurement": "suppression of body weight gain", "setting": "[1]; listed as trivalent chromium-nicotinic acid complex", "result": "neither the trivalent chromium-nicotinic acid complex alone nor the onion extract alone had the effect"}, {"measurement": "blood glucose level in glucose tolerance test", "setting": "[2]; 2nd and 4th week, after 2 g/kg D-glucose, no time point stated, compared to V group", "result": "no significant difference"}, {"measurement": "effect of improving insulin resistance", "setting": "[2]; conclusion from glucose tolerance test and serum insulin, 2 to 4 weeks", "result": "neither the trivalent chromium-nicotinic acid complex alone nor the onion extract alone had the effect"}, {"measurement": "blood glucose level", "setting": "[3]; at autopsy", "result": "no significant difference"}, {"measurement": "serum insulin content", "setting": "[3]; at autopsy", "result": "no significant difference"}, {"measurement": "serum free fatty acid (FFA)", "setting": "[3]", "result": "No significant difference"}, {"measurement": "serum leptin", "setting": "[3]", "result": "No significant difference"}, {"measurement": "serum triglyceride (TG)", "setting": "[3]", "result": "no significant difference; also recorded: tendency of reduction"}, {"measurement": "total serum cholesterol (TC)", "setting": "[3]", "result": "No significant difference"}]}]}
